PubChem BioAssay AID2202555 (NIEHS Division of Translational Toxicology (DTT))
Inconclusive results are not listed. Active and inactive are the calls of the source. The rule behind the calls is not given here.

System: rat and mouse 2-year carcinogenicity bioassay, tumor evidence
Assay: Consolidated carcinogenicity assay summary data
Text: Cancer Evaluation Criteria
The National Toxicology Program describes the results of individual experiments on a chemical agent and notes the strength of the evidence for conclusions regarding each study. […] Other organizations, such as the International Agency for Research on Cancer, assign a strength of evidence for conclusions based on an examination of all available evidence, including animal studies such as those conducted by the NTP, epidemiologic studies, and estimates of exposure. Thus, the actual determination of risk to humans from chemicals found to be carcinogenic in laboratory animals requires a wider analysis that extends beyond the purview of these studies.
Five categories of evidence of carcinogenic activity are used in the Technical Report series to summarize the strength of evidence observed in each experiment: two categories for positive results (clear evidence and some evidence); one category for uncertain findings (equivocal evidence); one category for no observable effects (no evidence); and one category for experiments that cannot be evaluated because of major flaws (inadequate study). These categories of interpretative conclusions were first adopted in June 1983 and then revised on March 1986 for use in the Technical Report series to incorporate more specifically the concept of actual weight of evidence of carcinogenic activity. For each separate experiment (male rats, female rats, male mice, female mice), one of the following five categories is selected to describe the findings. These categories refer to the strength of the experimental evidence and not to potency or mechanism.
For studies showing multiple chemical-related neoplastic effects that if considered individually would be assigned to different levels of evidence categories, the following convention has been adopted to convey completely the study results. In a study with clear evidence of carcinogenic activity at some tissue sites, other responses that alone might be deemed some evidence are indicated as "were also related" to chemical exposure. In studies with clear or some evidence of carcinogenic activity, other responses that alone might be termed equivocal evidence are indicated as "may have been" related to chemical exposure.
When a conclusion statement for a particular experiment is selected, consideration must be given to key factors that would extend the actual boundary of an individual category of evidence. Such consideration should allow for incorporation of scientific experience and current understanding of long-term carcinogenesis studies in laboratory animals, especially for those evaluations that may be on the borderline between two adjacent levels. These considerations should include:
- adequacy of the experimental design and conduct;
- occurrence of common versus uncommon neoplasia;
- progression (or lack thereof) from benign to malignant neoplasia as well as from preneoplastic to neoplastic lesions;
- some benign neoplasms have the capacity to regress but others (of the same morphologic type) progress. At present, it is impossible to identify the difference. Therefore, where progression is known to be a possibility, the most prudent course is to assume that benign neoplasms of those types have the potential to become malignant;
- combining benign and malignant tumor incidences known or thought to represent stages of progression in the same organ or tissue;
- latency in tumor induction;
- multiplicity in site -specific neoplasia;
- supporting information from proliferative lesions (hyperplasia) in the same site of neoplasia or in other experiments (same lesion in another sex or species);
- presence or absence of dose relationships;
- statistical significance of the observed tumor increase;
- concurrent control tumor incidence as well as the historical control rate and variability for a specific neoplasm;
- survival-adjusted analyses and false positive or false negative concerns;
- structure-activity correlations; and
[…]

SMILES | carcinogen call (Route (rodents): Dosed feed) | carcinogen call (Route (rodents): Gavage) | other results
CCOC(=O)C(O)(c1ccc(Cl)cc1)c1ccc(Cl)cc1 | active; equivocal evidence | – | –
Nc1ccc(O)c([N+](=O)[O-])c1 | active; clear evidence | – | –
[Co] | – | – | carcinogen call (Route (rodents): Inhalation): active; clear evidence
O=Cc1ccc(CO)o1 | – | active; no evidence | –
Cc1cnc[nH]1 | active; no evidence | – | –
Clc1ccc(-c2cc(Cl)c(Cl)cc2Cl)cc1Cl | – | active | –
O=C1CN(N=Cc2ccc([N+](=O)[O-])o2)C(=O)N1 | active; some evidence | – | –
CCCBr | – | – | carcinogen call (Route (rodents): Inhalation): active; some evidence
c1cc(OCC2CO2)cc(OCC2CO2)c1 (stereo unspecified) | – | active; clear evidence | –
S=c1[nH]c2ccccc2s1 | – | active; some evidence | –
CCCCC(CC)COC(=O)c1ccccc1C(=O)OCC(CC)CCCC (stereo unspecified) | active; clear evidence | – | –
CCCCC(CC)COC(=O)CCCCC(=O)OCC(CC)CCCC (stereo unspecified) | active; no evidence | – | –
Nc1nc(N)nc(N)n1 | active; clear evidence | – | –
Nc1cc(S(=O)(=O)[O-])cc2cc(S(=O)(=O)[O-])c(N=Nc3ccc(-c4ccc(N=Nc5c(S(=O)(=O)[O-])cc6cc(S(=O)(=O)[O-])cc(N)c6c5[O-])c([O-])c4)cc3[O-])c([O-])c12.[Cu+2].[Cu+2].[Na+].[Na+].[Na+].[Na+] | active; some evidence | – | –
O.O.O.O.O.O.O.O=S(=O)([O-])[O-].[Co+2] | – | – | carcinogen call (Route (rodents): Inhalation): active; some evidence
CC(C)(c1cc(Br)c(O)c(Br)c1)c1cc(Br)c(O)c(Br)c1 | – | active; equivocal evidence | –
N#CC(Br)Br | – | – | carcinogen call (Route (rodents): Dosed water): active; clear evidence
Clc1cc2c(cc1Cl)Oc1cc(Cl)c(Cl)cc1O2 | – | – | carcinogen call (Route (rodents): Gavage, Second Route: Topical): active; clear evidence
CCCCCCCCS(=O)C(C)Cc1ccc2c(c1)OCO2 (stereo unspecified) | active; no evidence | – | –
Nc1nc(N)c2nc(-c3ccccc3)c(N)nc2n1 | active; equivocal evidence | – | –
CN(C)c1ccc(C(=O)c2ccc(N(C)C)cc2)cc1 | active; clear evidence | – | –
Oc1c(Cl)c(Cl)c(Cl)c(Cl)c1Cl | active; some evidence | – | –
O=[O+][O-] | – | – | carcinogen call (Route (rodents): Inhalation): active; no evidence

SMILES | carcinogen call (Route (rodents): Dosed feed) | carcinogen call (Route (rodents): Gavage) | other results
C=CCOC(=O)CC(C)C | – | active; clear evidence | –
ClC1=C(Cl)C2(Cl)C3C(Cl)C(Cl)CC3C1(Cl)C2(Cl)Cl (stereo unspecified) | active; no evidence | – | –
Cc1ccc(S(=O)(=O)Oc2ccc(N=Nc3ccc(-c4ccc(N=Nc5c(O)ccc6cc(S(=O)(=O)O)cc(S(=O)(=O)O)c56)c(C)c4)cc3C)cc2)cc1 | – | – | carcinogen call (Route (rodents): Dosed water): active; clear evidence
COc1cc(-c2ccc(N)c(OC)c2)ccc1N | – | – | carcinogen call (Route (rodents): Dosed water): active; clear evidence
CCCCC1C(=O)N(c2ccccc2)N(c2ccccc2)C1=O | – | active; equivocal evidence | –
[O-]/[N+](=N\O)c1ccccc1 | active; clear evidence | – | –
Cc1ccc2c(c1N)C(=O)c1ccccc1C2=O | active; clear evidence | – | –
O=[N+]([O-])c1ccc(Nc2ccc(Nc3ccccc3)c(S(=O)(=O)O)c2)c([N+](=O)[O-])c1 | – | active; no evidence | –
O=C(c1ccccc1)c1ccccc1 | active; some evidence | – | –
COc1cc(-c2ccc(N=Nc3c(S(=O)(=O)O)cc4cc(S(=O)(=O)O)cc(N)c4c3O)c(OC)c2)ccc1N=Nc1c(S(=O)(=O)O)cc2cc(S(=O)(=O)O)cc(N)c2c1O | – | – | carcinogen call (Route (rodents): Dosed water): active; clear evidence
OCC1CO1 (stereo unspecified) | – | active; clear evidence | –
O=NN(c1ccccc1)c1ccccc1 | active; clear evidence | – | –
O=C1C2CC=CCC2C(=O)N1SC(Cl)(Cl)Cl (stereo unspecified) | active; no evidence | – | –
O=C([O-])c1cc(N=Nc2ccc(-c3ccc(N=Nc4c(O)ccc(N=Nc5cc(S(=O)(=O)[O-])ccc5[O-])c4[O-])cc3)cc2)ccc1O.[Cu+2].[Na+].[Na+] | active; no evidence | – | –
CCCN(CCC)c1c([N+](=O)[O-])cc(C(F)(F)F)cc1[N+](=O)[O-] | active; no evidence | – | –
OCCN(CCO)CCO | – | – | carcinogen call (Route (rodents): Topical): active; equivocal evidence
COP(=O)(OC)OC | – | active; clear evidence | –
CC(C)(C)O | – | – | carcinogen call (Route (rodents): Dosed water): active; some evidence
Clc1cc2oc3c(Cl)c(Cl)c(Cl)cc3c2cc1Cl | – | active | –
O=Cc1ccccc1 | – | active; no evidence | –
CN(C)c1ccc2nc3ccc(=[N+](C)C)cc-3sc2c1 | – | active; some evidence | –
OC(O)C(Cl)(Cl)Cl | – | active | –
CN(C)C(=O)Nc1ccc(Cl)cc1 | active; clear evidence | – | –

SMILES | carcinogen call (Route (rodents): Dosed feed) | carcinogen call (Route (rodents): Gavage) | other results
Cc1ccccc1[N+](=O)[O-] | active; clear evidence | – | –
Clc1ccc(Cl)cc1 | – | active; clear evidence | –
O=C(O)C(Br)Br | – | – | carcinogen call (Route (rodents): Dosed water): active; some evidence
Nc1cc(Cl)c(N)c(Cl)c1 | active; no evidence | – | –
Oc1cccc(O)c1O | – | – | carcinogen call (Route (rodents): Topical): active; no evidence
FC(F)=C(F)F | – | – | carcinogen call (Route (rodents): Inhalation): active; clear evidence
CCBr | – | – | carcinogen call (Route (rodents): Inhalation): active; some evidence
C=CC(N)=O | – | – | carcinogen call (Route (rodents): Dosed water): active; clear evidence
CC(=O)C(C)=O | – | – | carcinogen call (Route (rodents): Inhalation): active; some evidence
C=C(C)[C@H]1CC=C(C)CC1 | – | active; clear evidence | –
COP(=O)(OC)O/C(=C\Cl)c1cc(Cl)c(Cl)cc1Cl | active; no evidence | – | –
O=C1c2ccccc2C(=O)c2ccccc21 | active; some evidence | – | –
CCn1c2ccccc2c2cc(N)ccc21 | active; clear evidence | – | –
ClCC(Cl)Cl | – | active; no evidence | –
Brc1c(Br)c(Br)c(Oc2c(Br)c(Br)c(Br)c(Br)c2Br)c(Br)c1Br | active; some evidence | – | –
CC1CO1 (stereo unspecified) | – | – | carcinogen call (Route (rodents): Inhalation): active; some evidence
ClC(Cl)=C(c1ccc(Cl)cc1)c1ccc(Cl)cc1 | active; no evidence | – | –
C=C(C)CCl | – | active; clear evidence | –
CC(C)=C1CC[C@@H](C)CC1=O | – | active; no evidence | –
C[C@]12C/C(=C/O)C(=O)C[C@@H]1CC[C@@H]1[C@@H]2CC[C@@]2(C)[C@H]1CC[C@]2(C)O | – | active; equivocal evidence | –
C1CO1 | – | – | carcinogen call (Route (rodents): Inhalation): active
CN(C)NC(=O)CCC(=O)O | active; no evidence | – | –
CC(O)c1ccccc1 (stereo unspecified) | – | active; some evidence | –

SMILES | carcinogen call (Route (rodents): Dosed feed) | carcinogen call (Route (rodents): Gavage) | other results
CCCN(CCC)S(=O)(=O)c1ccc(C(=O)O)cc1 | – | active; no evidence | –
CC(C)CON=O | – | – | carcinogen call (Route (rodents): Inhalation): active; clear evidence
C=CC#N | – | active | –
OCC(Br)CBr (stereo unspecified) | – | – | carcinogen call (Route (rodents): Topical): active; clear evidence
COc1c(Cl)c(Cl)c(Cl)c(Cl)c1Cl | – | active; some evidence | –
Oc1ccc(O)cc1 | – | active; some evidence | –
Nc1ccc(Cc2ccc(N)cc2)cc1 | – | – | carcinogen call (Route (rodents): Dosed water): active; clear evidence
Nc1ccc(Sc2ccc(N)cc2)cc1 | active; clear evidence | – | –
C[C@@H]1Cc2c(Cl)cc(C(=O)N[C@@H](Cc3ccccc3)C(=O)O)c(O)c2C(=O)O1 | – | active; clear evidence | –
Nc1ccc(N=Nc2ccccc2)c(N)n1 | active; clear evidence | – | –
FC(F)(F)c1ccc(Cl)cc1 | – | – | carcinogen call (Route (rodents): Inhalation): active; some evidence
[O-][Cl+2]([O-])O | – | – | carcinogen call (Route (rodents): Dosed water): active; some evidence
CC(CN1CC(=O)NC(=O)C1)N1CC(=O)NC(=O)C1 (stereo unspecified) | – | – | carcinogen call (Route (rodents): Interperitoneal): active; no evidence
OC(c1ccc(Cl)cc1)(c1ccc(Cl)cc1)C(Cl)(Cl)Cl | active; no evidence | – | –
ClC1(Cl)C2(Cl)C3(Cl)C4(Cl)C(Cl)(Cl)C5(Cl)C3(Cl)C1(Cl)C5(Cl)C24Cl (stereo unspecified) | active; clear evidence | – | –
C1CCC2CCCCC2C1 (stereo unspecified) | – | – | carcinogen call (Route (rodents): Inhalation): active; clear evidence
CC(Cl)CCl (stereo unspecified) | – | active; no evidence | –
NC=O | – | active; no evidence | –
O=c1ccc2ccccc2o1 | – | active; some evidence | –
O=C(O)C(F)(F)C(F)(F)C(F)(F)C(F)(F)C(F)(F)C(F)(F)C(F)(F)F | active; clear evidence | – | –
Nc1ccc([N+](=O)[O-])cc1O | – | active; some evidence | –
CC(C)c1ccccc1 | – | – | carcinogen call (Route (rodents): Inhalation): active; clear evidence
